Laboratory results taken from patent publication US11274158B2, “Methods and compositions for treating inflammatory or autoimmune diseases or conditions using calcitonin receptor activators” (Flagship Pioneering Innovations V, Inc., priority 2018, dated 2022).

System: human macrophages
Assay: Effect of calcitonin receptor agonism on cytokine (IL6) secretion in human macrophages, bead-based immunoassay
Assay type: cell-based
Conditions: human monocyte-derived macrophages, supernatant
Method: CD14+ monocytes were isolated from human PBMCs using negative magnetic bead selection (Stemcell Technologies) on day 0. Cells were cultured with M-CSF to differentiate monocytes to macrophages. On day 6, cells were treated with SUN-B-8155, a non-peptide calcitonin receptor agonist (Sigma-Aldrich), at concentrations 2 μM and 20 μM overnight. Supernatant was collected and bead-based immunoassays (Biolegend) were performed to detect changes in cytokine secretion.
Across multiple donors, secretion of the inflammatory cytokine, IL6, by macrophages was decreased after addition of small molecule agonist to calcitonin receptor, as shown in Table 13 below.

CC(=Nc1ccccc1N)c1c(C)cc(=O)n(O)c1O [SUN-B-8155]
Fold change of IL6 (Normalized to Macs + LPS with no compound treatment) (2 μM overnight): 0.92
Fold change of IL6 (Normalized to Macs + LPS with no compound treatment) (20 μM overnight): 0.09
